# Results from patent US20260200946A1, “KRAS(G12V) INHIBITORS” (Ranok Therapeutics (Hangzhou) Co. Ltd., priority 2022, published 2026).
# What was measured:
# SW620 cells = experiment: Cancer cell line proliferation (CellTiter-Glo), SW620; type: cell-based; settings: Homo sapiens, SW-620, SW620 colorectal adenocarcinoma, homozygous G12V, 72 hr
# Description: Cell lines were cultured essentially according to ATCC recommendations. SW620 and NCIH727 cells were plated in 384-well tissue culture plates at 1,000 cells/well and incubated at 37° C./5% CO2 for 72 hr in 40 μl of media. […] Each cell line was then treated with test compounds at various concentrations with a final concentration of 0.5% DMSO/well, and then incubated at 37° C./5% CO2 for 72 hr. 40 μl of CellTiter-Glo® Reagent (Promega Corporation, Madison, WI) was added to each well and processed according manufacturer's protocol. Results were analyzed and IC50 values were calculated in GraphPad 8.0 software.
# KRAS(G12V)/SOS1 = target: T1, KRAS(G12V)/SOS1 (Homo sapiens, UniProt P01116, G12V); experiment: KRAS(G12V)/SOS1 homogeneous time-resolved fluorescence (HTRF) assay; type: binding; settings: absence of GTP; 4° C., 3 hours; read-out: HTRF of KRASG12V-SOS1
# T1 construct: purchased Cisbio 63ADK000CB18PEH
# T1 sequence (P01116 1-188 isoform P01116-2 G12V): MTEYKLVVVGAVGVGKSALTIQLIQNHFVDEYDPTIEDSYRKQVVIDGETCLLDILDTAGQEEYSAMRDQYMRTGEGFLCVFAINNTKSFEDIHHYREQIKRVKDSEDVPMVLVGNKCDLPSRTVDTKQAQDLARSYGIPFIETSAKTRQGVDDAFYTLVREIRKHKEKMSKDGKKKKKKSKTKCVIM
# Description: Binding of test compounds to KRAS(G12V) target protein, which in turn blocks KRAS(G12V) interaction with the SOS1 protein, was measured in the absences of GTP by homogeneous time-resolved fluorescence using the KRAS-G12V/SOS1 Binding Assay Kit (Cisbio, 63ADK000CB18PEH), following the manufacturer's instructions, except as noted. 3-fold serial dilutions of each test compound were prepared ranging from 20 µM to 1.02 nM. The test compound was mixed and incubated with reaction components, incubated in a sealed plate at 4° C. for 3 hours and fluorescence was measured using a PerkinElmer Envision plate reader. The KRAS(G12V)-SOS1 IC50 values (the concentration of 50% of the maximal inhibition) were calculated using GraphPad Prism 8.0 software.
# NCIH727 cells = experiment: Cancer cell line proliferation (CellTiter-Glo), NCI-H727; type: cell-based; settings: Homo sapiens, 72 h, NCIH727 lung carcinoid, heterozygous G12V
# Method in brief: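 NCI-H727 cells (1,000/well) were grown 72 h at 37 °C/5% CO2, then exposed to compound at various concentrations (0.5% DMSO final) for a further 72 h. Viability was read by CellTiter-Glo luminescence, and IC50 values were calculated from the dose-response.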
SMILES,EC50 (SW620 cells),IC50 (KRAS(G12V)/SOS1),EC50 (NCIH727 cells)
C#Cc1c(F)ccc2cc(O)cc(-c3ncc4c(N5CC6CCC(C5)N6C(=O)NC5CCCC5)nc(OCC5(CN6CCC(F)CC6)CC5)nc4c3F)c12 [Example 48],> 1 µM,< 0.1 µM,> 1 µM
C#Cc1c(F)ccc2cc(O)cc(-c3ncc4c(N5CC6CCC(C5)N6C(=O)NC5CCNC5)nc(OCC5(CN6CCC(F)CC6)CC5)nc4c3F)c12 (stereo not drawn) [Example 49],> 1 µM,< 0.1 µM,> 1 µM
C#Cc1c(F)ccc2cc(O)cc(-c3nc(OC)c4c(N5CC6CCC(C5)N6C(=O)C5CC5)nc(OCC5(CN6CCC(F)CC6)CC5)nc4c3F)c12 [Example 50],> 1 µM,< 0.1 µM,> 1 µM
C#Cc1c(F)ccc2cc(O)cc(-c3ncc4c(N5CC6CCC(C5)N6C(=O)NC5(C(F)(F)F)CC5)nc(OCC5(CN6CCC(F)CC6)CC5)nc4c3F)c12 [Example 51],> 1 µM,< 0.1 µM,> 1 µM
C#Cc1c(F)ccc2cc(O)cc(-c3nc(OC)c4c(N5CC6CCC(C5)N6C(=O)C(C)C(F)(F)F)nc(OCC5(CN6CCC(F)CC6)CC5)nc4c3F)c12 (stereo not drawn) [Example 52],> 1 µM,< 0.1 µM,> 1 µM
